Here are results for six compounds from patent US20240279612A1, “LIVER ORGANOID MANUFACTURING METHODS, LIVER ORGANOIDS OBTAINED WITH THE SAME, AND USES THEREOF” (INSTITUT NATIONAL DE LA SANTÉ ET DE LA RECHERCHE MÉDICALE, priority 2021, published 2024).

Each structure is given as a SMILES string. Where two headings read alike, the source gives them in different places.

For data set [1], the system named is CYP1A2. The data set is described as follows: Induction of CYP1A2 activity (phenacetin to acetaminophen, LC-MS/MS) in PHH. As to conditions: PHH model, omeprazole 50 μM for 3 days, versus basal (DMSO 0.1%). The data set is classed as in vitro ADME, human. As for the experimental part:
(§1) The primary human hepatocyte (PHH) cell line was obtained from four different healthy donors. PHH cells culture was performed according to the LONZA protocol (described in Document #BR-CryoHep-1 07/20 www.bioscience.lonza.com © 2020 Lonza Walkersville, Inc) with cell seeding at 70,000 cells/well in collagen I-coated 96-well plates (Corning® BioCoat™ Collagen I 96 Clear Well Plate). One hour after seeding, the PHH cells were cultured by the Sandwich method using Matrigel (Corning® Matrigel® Matrix) according to the protocol described in Gijbels et al. (Experimental Cholestasis Research, 2019). PHH cells were used 3 days later (short duration) or 2 weeks later (long duration) for the experiments. PHH cell line was cultivated at 37° C. in a humidified atmosphere with 5% CO2.
(§2) PHH and LO grown in 96-well plates were treated by adding 200 μl/well and HLCs in 6-well plates by adding 1 ml/well of CYP's inductors in a hepatocyte culture medium (HCM) without EGF (Lonza—CC-3198).
(§3) CYPs were induced by different types of inducers (SIGMA) at different concentrations for 3 days (as detailed in TABLE 3): Omeprazole (50 μM), Rifampicin (10 μM), Imidazole (500 μM), Phenobarbital (500 μM) and CITCO (1 μM). A control condition (namely “basal”) is performed with DMSO […] instead of inducer. […]

Data set [2] relates to liver organoid (LO). Conditions: 48 h. As to the method:
Steatosis was induced by amiodarone at 20 μM or ethanol at […] for 2 days after the end of differentiation (Day 28). After fixation of the cells with paraformaldehyde (PFA 4% in PBS) for 15 minutes at room temperature, the lipids were labelled with Nile Red (50 ng/ml) for 1 hour at room temperature and then washed three times with PBS (1000 μl). At this step, samples can be stored in PBS at 4° C.
(§4) After the acquisition of different Z-stacks of the LOs, the images were analyzed and quantified by the image analysis software Metaxpress developed by Molecular Devices.

The test system of data set [3] is liver organoid (LO). The data set is described as follows: Internalization of LDL-bodipy by liver organoids. The data set is classed as cell-based, human. As to conditions: 20 hours, then 3 hours LDL-bodipy, compared to controls (FIG. 2). As to the method: Treatment with mevastatin (20, 25 and 30 μg/ml) or DMSO (0.1%) was performed for 20 hours after the end of differentiation (Day 28). After treatment, LOs were incubated with LDL-bodipy (Invitrogen, Ref: L3483) for 3 hours (INVITROGEN). Finally, once the incubation with LDL-bodipy was completed, the scaffolds were washed three times with HCM medium (LONZA) at 37° C. and then the cells were fixed with paraformaldehyde (PFA 4% in PBS) for 15 minutes at room temperature. At this stage, the samples can be stored in PBS at 4° C.
as §4
Concerning LDL internalization, it was noted that the LO model significatively reacted to mevastatin at concentrations of 20, 25 and 30 ug/ml with an increase in LDL-bodipy internalization of 14, 18 and 26% respectively compared to controls (FIG. 2).

In data set [4] the test system is CYP2B6. The data set is described as follows: Induction of CYP2B6 activity (bupropion to hydroxybupropion, LC-MS/MS) in PHH. As to conditions: PHH model, versus basal (DMSO 0.1%). As to the method:
as §1, §2, §3

`COc1ccc2[nH]c([S+]([O-])Cc3ncc(C)c(OC)c3C)nc2c1` (centres unmarked) [omeprazole, Omeprazole]: the “induction of CYP1A2” value in data set [1] is on record as 7.2 times.
As for `CCCCc1oc2ccccc2c1C(=O)c1cc(I)c(OCCN(CC)CC)c(I)c1` [amiodarone], in data set [2] (40 µM), the “increase in lipid accumulation” value was 60%.
On to `CCO` [ethanol], for which the “increase in lipid accumulation” value in data set [2] (0.1 µM) is 29%.
For the compound `CC[C@H](C)C(=O)O[C@H]1CCC=C2C=C[C@H](C)[C@H](CC[C@@H]3C[C@@H](O)CC(=O)O3)[C@H]21` [mevastatin], the “increase in LDL-bodipy internalization” value was 14% in data set [3] (mevastatin 20 ug/ml), 18% in data set [3] (mevastatin 25 ug/ml) and 26% in data set [3] (mevastatin 30 ug/ml).
Turning to `Clc1ccc(-c2nc3sccn3c2/C=N/OCc2ccc(Cl)c(Cl)c2)cc1` [CITCO], the “induction of CYP2B6” value in data set [4] (CITCO 1 μM for 3 days) amounted to 3.3 times.
As to `CCC1(c2ccccc2)C(=O)NC(=O)NC1=O` [phenobarbital, Phenobarbital], in data set [4] (phenobarbital 500 μM for 3 days), the “induction of CYP2B6” value is 5.8 times.
